Laboratory results taken from patent US9738677B2, “Amphotericin B derivative with reduced toxicity” (priority 2014, dated 2017).
Each block holds one compound with its values, some of them ahead of it.

Tests used:
healthy mice = test: Acute toxicity, single intravenous administration, lethality; format: in vivo, mouse; settings: healthy mice, single intravenous 4 mg/kg
Method: FIG. 8 is a graph depicting lethality in healthy mice resulting from single intravenous administrations in the doses indicated of AmB or C2′epiAmB.
In a separate experiment, acute toxicity was determined by single intravenous administration of AmB or C2′epiAmB to healthy mice, followed by monitoring for lethality.

[1] = system: primary human renal proximal tubule epithelial cells; test: WST-8 cell proliferation assay (MTC); format: cell-based
Method: WST-8 Cell Proliferation Assays
Primary human renal proximal tubule epithelial cells (RPTECs) were purchased from ATCC (Manassas, Va.) and immediately cultured upon receipt. Complete growth media was prepared using renal epithelial cell basal medium (ATCC, PCS-400-030), renal epithelial cell growth kit (ATCC, PCS-400-040), and penicillin-streptomycin (10 units/mL and 10 μg/mL). Complete media was stored at 4° C. in the dark and used within 28 days. Primary RPTECs were grown in CO2 incubator at 37° C. with an atmosphere of 95% air/5% CO2.
WST-8 cell proliferation assay kit (Ser. No. 10/010,199) was purchased from Cayman Chemical Company (Ann Arbor, Mich.) and stored at −20° C. and used within 6 months of receipt. WST-8 reagent and electron mediator solution were thawed and mixed to prepare the WST-8 reagent solution. The solution was stored at −20° C. and used within one week.
A suspension of primary RPTECs in complete growth media was brought to a concentration of 1×10^5 cells/mL. A 96-well plate was seeded with 99 μL of the cell suspension and incubated at 37° C. with an atmosphere of 95% air/5% CO2 for 3 hours. Positive and negative controls were prepared by seeding with 100 μL of the cell suspension or 100 μL of the complete media. Compounds were prepared as 5 mM (AmB), 20 mM (C2′deOAmB), and 50 mM (C2′epiAmB) stock solutions in DMSO and serially diluted to the following concentrations with DMSO: 50000, 40000, 30000, 20000, 10000, 8000, 6000, 4000, 3000, 2000, 1500, 1000, 800, 600, 400, 300, 200, 100, 50, 25, 10, 5, 2.5, 1, 0.5, 0.25, and 0.1 μM. 1 μL aliquots of each solution were added to the 96-well plate in triplicate, with each column representing a different concentration of the test compound. The 96-well plate was incubated at 37° C. with an atmosphere of 95% air/5% CO2 for 24 hours. […] Following incubation, the 96-well plate was mixed in a shaking incubator at 200 rpm for 1 minute and absorbances were read at 450 nm using a Biotek H1 Synergy Hybrid Reader (Wanooski, Vt.). […]

human red blood cells = test: Minimum hemolysis concentration (MHC) assay; format: cell-based; settings: concentration causing 90% hemolysis of human red blood cells, 2 hours, 37° C.
Method: The protocol for the hemolysis assay was adapted from the report of Paquet and coworkers. […] Whole human blood (sodium heparin) was purchased from Bioreclamation LLC (Westbury, N.Y.) and stored at 4° C. and used within two days of receipt. To a 2.0 mL Eppendorf tube, 1 mL of whole human blood was added and centrifuged at 10,000 g for 2 minutes. The supernatant was removed and the erythrocyte pellet was washed with 1 mL of sterile saline and centrifuged at 10,000 g for 2 minutes. The saline wash was repeated for a total of three washes. The erythrocyte pellet was suspended in 1 mL of RBC buffer (10 mM NaH2PO4, 150 mM NaCl, 1 mM MgCl2, pH 7.4) to form the erythrocyte stock suspension.
Positive and negative controls were prepared by adding 1 μL of DMSO to MilliQ water or RBC buffer, respectively to 0.2 mL PCR tube. To each PCR tube, 0.63 μL of the erythrocyte stock suspension was added and mixed by inversion. The samples were incubated at 37° C. for 2 hours. The samples were mixed by inversion and centrifuged at 10,000 g for 2 minutes. 15 μL of the supernatant from each sample was added to a 384-well place. Absorbances were read at 540 nm using a Biotek H1 Synergy Hybrid Reader (Wanooski, Vt.). Experiments were performed in triplicate and the reported MHC represents an average of three experiments.
Percent hemolysis was determined according to the following equation:
[formula] […]

[2] = ITC sterol binding, POPC LUVs containing 10% ergosterol; settings: net exotherm vs sterol-free LUVs
Method: (§1) Isothermal Titration calorimetry (ITC)
(§2) In an optimized isothermal titration calorimetry (ITC)-based assay, an aqueous solution of AmB was titrated with a suspension of large unilamellar vesicles (LUVs) comprised of only 1-palmitoyl-2-oleoyl-sn-glycero-3-phosphocholine (POPC), and the net exotherm was recorded. The titration was repeated using POPC LUVs containing 10% ergosterol. […] The titration was repeated using C2′epiAmB. […] The ITC assay was also conducted with cholesterol in place of ergosterol.
(§3) Experiments were performed using a NanoITC isothermal titration calorimeter (TA Instruments, Wilmington, Del.). Solutions of the compounds to be tested were prepared by diluting a 60.0 mM stock solution of the compound in DMSO to 600 μM with K buffer (5.0 mM HEPES/KHEPES, pH=7.4). The final DMSO concentration in the solution was 1% v/v. Large unilamellar vesicles comprised of only 1-palmitoyl-2-oleoyl-sn-glycero-3-phosphocholine (POPC LUVs) were prepared and phosphorus and ergosterol content was quantified as described below. The LUV solutions were diluted with buffer and DMSO to give a final phospholipid concentration of 12.0 mM in a 1% DMSO/K buffer solution. Immediately prior to use, all solutions were incubated at 37° C. for 30 minutes and degassed under vacuum at 37° C. for 10 minutes. The reference cell of the instrument (volume=0.190 mL) was filled with a solution of 1% v/v DMSO/K buffer.
(§4) Palmitoyl oleoyl phosphatidylcholine (POPC) was obtained as a 20 mg/mL solution in CHCl3 from Avanti Polar Lipids (Alabaster, Ala.) and was stored at −20° C. under an atmosphere of dry argon and used within 1 month. […]
Ergosterol content was determined spectrophotometrically. […] The solutions were then analyzed by UV/Vis spectroscopy and the concentration of ergosterol in solution was determined by the extinction coefficient of 10400 L mol^−1 cm^−1 at the UVmax of 282 nm and was compared to the concentration of phosphorus to determine the percent sterol content. The extinction coefficient was determined independently in the above ternary solvent system. […]

yeast [3] = settings: previously found; cited from earlier work
[4] = previously found; cited from earlier work
renal cells = format: cell-based, human
Method: Cells were imaged using an AMG (Bothell, Wash.) EVOS fl Microscope. Images were taken using transmitted light at 10× objective.
(18) Due to the limited solubility of AmB and its derivatives in the renal cell media, 80 μM is the highest concentration we were able to study. At higher concentrations, the aggregate blocks the light path of the plate reader, giving false high absorbance readings.

[5] = previously found; cited from earlier work; remark: listed apart in the source
[6] = ITC sterol binding, POPC LUVs containing 10% cholesterol; settings: within the limits of the binding assay
Method: as §1, §2, §3
as §4, with “month. A 4 mg/mL solution of ergosterol in CHCl3 was prepared monthly and stored at 4° C. under an atmosphere of dry argon.” for “month.”
NanoAnalyze software (TA Instruments) was used for baseline determination and integration of the injection heats, and Microsoft Excel was used for subtraction of dilution heats and the calculation of overall heat evolved. […] By this method, the overall heat evolved during the experiment was calculated using the following formula: […]

yeast [7] = settings: reported by Carreira and coworkers; cited from earlier work
[8] = Chol-containing POPC liposomes, 1 μM; cited from earlier work

SMILES: C[C@@H]1[C@H](O)[C@@H](C)/C=C/C=C/C=C/C=C/C=C/C=C/C=C/[C@H](O[C@@H]2O[C@H](C)[C@@H](O)[C@H](N)[C@@H]2O)C[C@@H]2O[C@](O)(C[C@@H](O)C[C@@H](O)[C@H](O)CC[C@@H](O)C[C@@H](O)CC(=O)O[C@H]1C)C[C@H](O)[C@H]2C(=O)O [AmB, amphotericin B]
- Lethality (healthy mice): died within seconds
- MTC (minimum toxic concentration) ([1]; concentration causing 90% loss of cell viability, primary human RPTECs, 24 hours): 2.4 µM
- MHC (minimum hemolytic concentration) (human red blood cells): 8.5 µM
- Binding to ergosterol (in words) [2]: significant increase in net exotherm

SMILES: C[C@@H]1[C@H](O)[C@@H](C)C=CC=CC=CC=CC=CC=CC=C[C@H](O)C[C@@H]2O[C@](O)(C[C@@H](O)C[C@@H](O)[C@H](O)CC[C@@H](O)C[C@@H](O)CC(=O)O[C@H]1C)C[C@H](O)[C@H]2C(=O)O [AmdeB, amphoteronolide B]
- Toxicity to yeast (previous work) (yeast [3]): non-toxic to yeast
- Capacity to bind ergosterol (previous work) [4]: eliminates its capacity to bind both ergosterol and cholesterol
- Visual evidence of toxicity in microscope images of renal cells (renal cells): no visual evidence of toxicity
- Capacity to bind cholesterol (previous work) [5]: eliminates its capacity to bind both ergosterol and cholesterol

- Binding to cholesterol (in words) [6]: do not bind cholesterol
SMILES: C[C@@H]1[C@H](O)[C@@H](C)/C=C/C=C/C=C/C=C/C=C/C=C/C=C/[C@H](O[C@H]2C[C@@H](N)[C@H](O)[C@@H](C)O2)C[C@@H]2O[C@](O)(C[C@@H](O)C[C@@H](O)[C@H](O)CC[C@@H](O)C[C@@H](O)CC(=O)O[C@H]1C)C[C@H](O)[C@H]2C(=O)O [C2′deOAmB]
- Toxicity to primary human renal proximal tubule epithelial cells (in words) ([1]; up to limits of solubility): no evidence of toxicity up to their limits of solubility
- Visual evidence of toxicity in microscope images of renal cells (renal cells): no visual evidence of toxicity

SMILES: COC(=O)[C@H]1[C@@H]2C[C@@H](O[C@@H]3O[C@H](C)[C@@H](O)[C@H](N)[C@H]3O)/C=C/C=C/C=C/C=C/C=C/C=C/C=C/[C@H](C)[C@@H](O)[C@@H](C)[C@H](C)OC(=O)C[C@H](O)C[C@H](O)CC[C@@H](O)[C@H](O)C[C@H](O)C[C@](O)(C[C@@H]1O)O2 [C2′epiAmE, C2′epiAmB methyl ester]
- Potency in yeast MIC assays compared to AmB (yeast [7]): equipotent to AmB
- Efflux of potassium ions [8]: caused efflux of potassium ions
